Test results from publication PMC4731831, “Better than Nature: Nicotinamide Biomimetics That Outperform Natural Coenzymes” (Journal of the American Chemical Society, 2016).

Each molecule was assayed against T1, TsOYE (Thermus scotoductus, UniProt B0JDW3) (assay: anaerobic stopped-flow flavin reduction). Conditions: apparent; reductive half-reaction; 50 mM MOPS pH 7.0, 5 mM CaCl2, 30 °C.
T1 construct: gene chrR; overexpressed ene reductase with FMN; construct only in supplement
Type: biochemical
Description: anaerobic stopped-flow flavin reduction on TsOYE

Compound | Kd
NC(=O)C1=CN([C@@H]2O[C@H](COP(=O)(O)OP(=O)(O)OC[C@H]3O[C@@H](n4cnc5c(N)ncnc54)[C@H](OP(=O)(O)O)[C@@H]3O)[C@@H](O)[C@H]2O)C=CC1 [NADPH] | 9 ± 0.6 µM
NC(=O)C1=CN([C@@H]2O[C@H](COP(=O)(O)OP(=O)(O)OC[C@H]3O[C@@H](n4cnc5c(N)ncnc54)[C@H](O)[C@@H]3O)[C@@H](O)[C@H]2O)C=CC1 [NADH] | 8 ± 0.7 µM
NC(=O)C1=CN(Cc2ccccc2)C=CC1 [compound 1, biomimetic 1] | 227 ± 5 µM
CCCCN1C=CCC(C(N)=O)=C1 [compound 2, biomimetic 2] | 406 ± 12 µM
